In the supplement of paper PMC11208160:

Experiment: recombinant UMI read abundance after kanamycin selection (control-corrected) (log10(CPM+1)); higher = more efficient recombination; extreme values may be limits of the assay; sequences stand for … in AGTGCAGAGAAAATCGGCCAGTTTTCTCTGCCTGCAGTCCGCATGCCGTGGGACCCCTTGGGTTCTAACCTGTTGCCTAGATTTATGCAGCGGACTGCCTTTCTCCCAAAGTGATAAACCGG…AGGTTGGTTTCACT; site = the 11-nt donor
Summary of the method: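 Reported values are log10(CPM+1) from a pooled Escherichia coli screen of donor and donor-binding-loop pairs for the IS621 bridge recombinase. Selection used IPTG (0.07 mM) plus kanamycin, against unselected plating, each in two replicates. Recombinant UMIs were amplified across the donor–target junction, sequenced, converted to CPM, averaged over replicates and scaled by control-derived factors.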
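Note: IS621 bridge recombinase in Escherichia coli cells against a fixed T5 target plasmid.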

Row | Sequence | recombinant UMI read abundance (log10)
1 | CTGCTGCCATGGACCGGTTTTCCCGGTAATCCGTATTTGCT (site CTGCTCCCTAG) | 0.506
2 | CTGCTGCCATGGACCGGTTTTCCCGGTAATCCGTATTTGCT (site CTGCTGCCTAG) | 1.22
3 | CTGCTGCCATGGACCGGTTTTCCCGGTAATCCGTATTTGCT (site CTGCTTCCTAG) | 0
4 | CTGCTTCCATGGACCGGTTTTCCCGGTAATCCGTATTTGCT (site CTGCTACCTAG) | 0
5 | CTGCTTCCATGGACCGGTTTTCCCGGTAATCCGTATTTGCT (site CTGCTCCCTAG) | 0.807
6 | CTGCTTCCATGGACCGGTTTTCCCGGTAATCCGTATTTGCT (site CTGCTGCCTAG) | 0.00367
7 | CTGCTTCCATGGACCGGTTTTCCCGGTAATCCGTATTTGCT (site CTGCTTCCTAG) | 1.73
8 | CTGGAACCATGGACCGGTTTTCCCGGTAATCCGTATTTGAT (site CAGGAACCTAT) | 0
9 | CTGGAACCATGGACCGGTTTTCCCGGTAATCCGTATTTGAT (site CCGGAACCTAT) | 0
10 | CTGGAACCATGGACCGGTTTTCCCGGTAATCCGTATTTGAT (site CGGGAACCTAT) | 0
11 | CTGGAACCATGGACCGGTTTTCCCGGTAATCCGTATTTGAT (site CTGGAACCTAT) | 0
12 | CTGGAACCATGGACCGGTTTTCCCGGTAATCCGTATTTGCA (site CTGGAAACTTG) | 0
13 | CTGGAACCATGGACCGGTTTTCCCGGTAATCCGTATTTGCA (site CTGGAACCTTG) | 0
14 | CTGGAACCATGGACCGGTTTTCCCGGTAATCCGTATTTGCA (site CTGGAAGCTTG) | 0.00806
15 | CTGGAACCATGGACCGGTTTTCCCGGTAATCCGTATTTGCA (site CTGGAATCTTG) | 2.36
16 | CTGGACACATGGACCGGTTTTCCCGGTAATCCGTATTTGCA (site CTGGAAACTTG) | 0.462
17 | CTGGACACATGGACCGGTTTTCCCGGTAATCCGTATTTGCA (site CTGGACACTTG) | 2.59
18 | CTGGACACATGGACCGGTTTTCCCGGTAATCCGTATTTGCA (site CTGGAGACTTG) | 0.00455
19 | CTGGACACATGGACCGGTTTTCCCGGTAATCCGTATTTGCA (site CTGGATACTTG) | 1.66
20 | CTGGGCCCATGGACCGGTTTTCCCGGTAATCCGTATTTGCC (site CTGGGCCCTGG) | 0
21 | CTGGTAACATGGACCGGTTTTCCCGGTAATCCGTATTTGCA (site CTGGAAACTTG) | 1.03
22 | CTGGTAACATGGACCGGTTTTCCCGGTAATCCGTATTTGCA (site CTGGCAACTTG) | 0.197
23 | CTGGTAACATGGACCGGTTTTCCCGGTAATCCGTATTTGCA (site CTGGGAACTTG) | 0
24 | CTGGTAACATGGACCGGTTTTCCCGGTAATCCGTATTTGCA (site CTGGTAACTTG) | 2.06
25 | CTGGTATCATGGACCGGTTTTCCCGGTAATCCGTATTTGAC (site CTAGTATCTGT) | 3.16

Row | Sequence | recombinant UMI read abundance (log10)
26 | CTGGTATCATGGACCGGTTTTCCCGGTAATCCGTATTTGAC (site CTCGTATCTGT) | 0
27 | CTGGTATCATGGACCGGTTTTCCCGGTAATCCGTATTTGAC (site CTGGTATCTGT) | 3.22
28 | CTGGTATCATGGACCGGTTTTCCCGGTAATCCGTATTTGAC (site CTTGTATCTGT) | 0.816
29 | CTGGTCGCATGGACCGGTTTTCCCGGTAATCCGTATTTGCA (site CTGGTCGCTTG) | 2.01
30 | CTGTACCCATGGACCGGTTTTCCCGGTAATCCGTATTTGAG (site CTGTACCCTCT) | 0.00463
31 | CTGTCAGCATGGACCGGTTTTCCCGGTAATCCGTATTTGGT (site CTGTCAGCTAC) | 0.563
32 | CTGTCCTCATGGACCGGTTTTCCCGGTAATCCGTATTTGTT (site CTGTCCTCTAA) | 1.92
33 | CTGTCGACATGGACCGGTTTTCCCGGTAATCCGTATTTGGT (site CTGTCGACTAC) | 0.884
34 | CTGTCGGCATGGACCGGTTTTCCCGGTAATCCGTATTTGCC (site CTGTCGGCTGG) | 0
35 | CTGTCTCCATGGACCGGTTTTCCCGGTAATCCGTATTTGAG (site CTGTCTCCTCT) | 0.0686
36 | CTGTCTTCATGGACCGGTTTTCCCGGTAATCCGTATTTGGG (site CTGTCTTCTCC) | 0.0096
37 | CTGTGAACATGGACCGGTTTTCCCGGTAATCCGTATTTGTT (site CTGTGAACTAA) | 1.15
38 | CTTACTACATGGACCGGTTTTCCCGGTAATCCGTATTTGGA (site CTTACTACTTC) | 0.205
39 | CTTAGGCCATGGACCGGTTTTCCCGGTAATCCGTATTTGAA (site CTTAGGCCTTT) | 0.104
40 | CTTATCTCATGGACCGGTTTTCCCGGTAATCCGTATTTGTA (site CTTATCTCTTA) | 2.27
41 | CTTATCTCATGGACCGGTTTTCCCGGTAATCCGTATTTGTA (site CTTCTCTCTTA) | 0.475
42 | CTTATCTCATGGACCGGTTTTCCCGGTAATCCGTATTTGTA (site CTTGTCTCTTA) | 0.606
43 | CTTATCTCATGGACCGGTTTTCCCGGTAATCCGTATTTGTA (site CTTTTCTCTTA) | 0.00641
44 | CTTCACACATGGACCGGTTTTCCCGGTAATCCGTATTTGTA (site CTTCACACTTA) | 0.61
45 | CTTCCGCCATGGACCGGTTTTCCCGGTAATCCGTATTTGAG (site CTTCCGCCTCT) | 0.0295
46 | CTTCGACCATGGACCGGTTTTCCCGGTAATCCGTATTTGCA (site CTTCGACCTTG) | 0
47 | CTTCGAGCATGGACCGGTTTTCCCGGTAATCCGTATTTGTT (site CTTCGAGCTAA) | 1.59
48 | CTTCGTCCATGGACCGGTTTTCCCGGTAATCCGTATTTGTT (site CTTCGTCCTAA) | 0.0114
49 | CTTCTATCATGGACCGGTTTTCCCGGTAATCCGTATTTGTA (site CTTCTATCTTA) | 1.62
50 | CTTCTATCATGGACCGGTTTTCCCGGTAATCCGTATTTGTA (site CTTCTCTCTTA) | 0.0109

Row | Sequence | recombinant UMI read abundance (log10)
51 | CTTCTATCATGGACCGGTTTTCCCGGTAATCCGTATTTGTA (site CTTCTGTCTTA) | 0
52 | CTTCTATCATGGACCGGTTTTCCCGGTAATCCGTATTTGTA (site CTTCTTTCTTA) | 0
53 | CTTCTCACATGGACCGGTTTTCCCGGTAATCCGTATTTGTA (site CTTCTCACTTA) | 0.336
54 | CTTCTCACATGGACCGGTTTTCCCGGTAATCCGTATTTGTA (site CTTCTCCCTTA) | 0.00809
55 | CTTCTCACATGGACCGGTTTTCCCGGTAATCCGTATTTGTA (site CTTCTCGCTTA) | 0.0103
56 | CTTCTCACATGGACCGGTTTTCCCGGTAATCCGTATTTGTA (site CTTCTCTCTTA) | 0
57 | CTTCTCTCATGGACCGGTTTTCCCGGTAATCCGTATTTGCA (site CTTCTCTCTTA) | 0.866
58 | CTTCTCTCATGGACCGGTTTTCCCGGTAATCCGTATTTGCA (site CTTCTCTCTTC) | 0
59 | CTTCTCTCATGGACCGGTTTTCCCGGTAATCCGTATTTGCA (site CTTCTCTCTTG) | 2.46
60 | CTTCTCTCATGGACCGGTTTTCCCGGTAATCCGTATTTGCA (site CTTCTCTCTTT) | 0.83
61 | CTTCTCTCATGGACCGGTTTTCCCGGTAATCCGTATTTGCT (site CTTCTCTCTAG) | 2.48
62 | CTTCTGCCATGGACCGGTTTTCCCGGTAATCCGTATTTGGG (site CTTCTGCCTCC) | 0.0114
63 | CTTGACTCATGGACCGGTTTTCCCGGTAATCCGTATTTGTA (site CTTGACTCTTA) | 2.26
64 | CTTGAGACATGGACCGGTTTTCCCGGTAATCCGTATTTGGT (site ATTGAGACTAC) | 0.141
65 | CTTGAGACATGGACCGGTTTTCCCGGTAATCCGTATTTGGT (site CTTGAGACTAC) | 1.03
66 | CTTGAGACATGGACCGGTTTTCCCGGTAATCCGTATTTGGT (site GTTGAGACTAC) | 0.00699
67 | CTTGAGACATGGACCGGTTTTCCCGGTAATCCGTATTTGGT (site TTTGAGACTAC) | 0.00972
68 | CTTGCATCATGGACCGGTTTTCCCGGTAATCCGTATTTGAT (site CTTGCATCTAT) | 0.497
69 | CTTGCGGCATGGACCGGTTTTCCCGGTAATCCGTATTTGCT (site ATTGCGGCTAG) | 0.00273
70 | CTTGCGGCATGGACCGGTTTTCCCGGTAATCCGTATTTGCT (site CTTGCGGCTAG) | 0.82
71 | CTTGCGGCATGGACCGGTTTTCCCGGTAATCCGTATTTGCT (site GTTGCGGCTAG) | 0.00591
72 | CTTGCGGCATGGACCGGTTTTCCCGGTAATCCGTATTTGCT (site TTTGCGGCTAG) | 0
73 | CTTGCGGCATGGACCGGTTTTCCCGGTAATCCGTATTTGGG (site CTTGCGGCTCC) | 0.0147
74 | CTTGGTCCATGGACCGGTTTTCCCGGTAATCCGTATTTGCG (site CTTGGTCCTCG) | 0.00731
75 | CTTGTGTCATGGACCGGTTTTCCCGGTAATCCGTATTTGGG (site CTTGTGTCTCC) | 0.208
